Measurements as given in patent US9005575B2, “Arg-Gly-Asp-conjugated alpha-melanocyte stimulating hormone hybrid peptide for use in diagnosing and treating melanoma, including metastatic melanoma and methods related to same” (STC.UNM, priority 2009, dated 2015).
Like-named read-outs stand apart in the source and are kept apart here. Positions of bridges follow the written chain, without caps; N, C: chain ends. Non-standard residues stand in square brackets, D forms with d. Residues, ends and D or L forms follow the SMILES beside them.

Experiment: Biodistribution in B16/F1 melanoma-bearing C57 mice
Assay type: in vivo
Conditions: female, C57, mouse, iv, total radioactivity; for tissue uptake at 0.5 h / tissue to tissue ratio at 0.5 h: 0.5 h post-injection; for tissue uptake at 2 h / tissue to tissue ratio at 2 h: 2 h post-injection; for tissue uptake at 4 h / tissue to tissue ratio at 4 h: 4 h post-injection; for tissue uptake at 24 h / tissue to tissue ratio at 24 h: 24 h post-injection
Protocol: All the animal studies were conducted in compliance with Institutional Animal Care and Use Committee approval. The pharmacokinetics of ^99mTc-RGD-Lys-(Arg^11)CCMSH was determined in B16/F1 melanoma-bearing C57 female mice (Harlan, Indianapolis, Ind.). C57 mice were subcutaneously inoculated on the right flank with 1×10^6 B16/F1 cells. The weight of tumors reached approximately 0.2 g 10 days post cell inoculation. Each melanoma-bearing mouse was injected with 0.037 MBq of ^99mTc-RGD-Lys-(Arg^11)CCMSH via the tail vein. Groups of 5 mice were sacrificed at 0.5, 2, 4 and 24 h post-injection, and tumors and organs of interest were harvested, weighed and counted. Blood values were taken as 6.5% of the whole-body weight. The MC1 receptor specificity of the tumor uptake was determined at 2 h post-injection by co-injecting ^99mTc-RGD-Lys-(Arg^11)CCMSH with 10 μg (6.1 nmol) of unlabeled NDP-MSH, a linear α-MSH peptide analogue with picomolar affinity for the MC1 receptors present on murine melanoma cells. The co-injection of 3.5 μg (6.1 nmol) of RGD peptide was performed to determine the αvβ3 integrin specificity of the tumor uptake 2 h post-injection. Statistical analysis was performed using the Student's t-test for unpaired data.
All the animal studies were conducted in compliance with Institutional Animal Care and Use Committee approval. The pharmacokinetics of ^99mTc-RGD-Arg-(Arg^11)CCMSH was determined in B16/F1 melanoma-bearing C57 female mice (Harlan, Indianapolis, Ind.). C57 mice were subcutaneously inoculated on the right flank with 1×10^6 B16/F1 cells. The weight of tumors reached approximately 0.2 g 10 days post cell inoculation. Each melanoma-bearing mouse was injected with 0.037 MBq of ^99mTc-RGD-Arg-(Arg^11)CCMSH via the tail vein. Groups of 5 mice were sacrificed at 0.5, 2, 4 and 24 h post-injection, and tumors and organs of interest were harvested, weighed and counted. Blood values were taken as 6.5% of the whole-body weight. The MC1 receptor specificity of the tumor uptake was determined at 2 h post-injection by co-injecting ^99mTc-RGD-Arg-(Arg^11)CCMSH with 10 μg (6.1 nmol) of unlabeled NDP-MSH. The co-injection of 3.5 μg (6.1 nmol) of RGD peptide was performed to determine the αvβ3 integrin specificity of the tumor uptake at 2 h post-injection.

[1] = pancreas, 0.037 MBq, read-out: Pancreas, Percentage Injected Dose/gram
[2] = skin, 0.037 MBq, read-out: Skin, Percentage Injected Dose/gram
[3] = spleen, 0.037 MBq, read-out: Spleen, Percentage Injected Dose/gram
[4] = stomach, 0.037 MBq, read-out: Stomach, Percentage Injected Dose/gram
[5] = tumor, 0.037 MBq, read-out: Tumor, Percentage Injected Dose/gram
[6] = tumor/blood, 0.037 MBq, read-out: Uptake Ratio Tumor/Blood
[7] = tumor/kidneys, 0.037 MBq, read-out: Uptake Ratio Tumor/Kidneys
[8] = tumor/liver, 0.037 MBq, read-out: Uptake Ratio Tumor/Liver
[9] = tumor/lung, 0.037 MBq, read-out: Uptake Ratio Tumor/Lung
[10] = tumor/muscle, 0.037 MBq, read-out: Uptake Ratio Tumor/Muscle

`CC(C)[C@H](NC(=O)[C@@H]1CCCN1C(=O)[C@H](CCCNC(=N)N)NC(=O)[C@H](CS)NC(=O)[C@H](Cc1c[nH]c2ccccc12)NC(=O)[C@H](CCCNC(=N)N)NC(=O)[C@@H](Cc1ccccc1)NC(=O)[C@H](Cc1c[nH]cn1)NC(=O)[C@H](CCC(=O)O)NC(=O)[C@H](CS)NC(=O)[C@H](CS)NC(=O)[C@H](CCCCN)NC(=O)[C@@H]1CC(=O)N[C@@H](CCCNC(=N)N)C(=O)NCC(=O)N[C@@H](CC(=O)O)C(=O)N[C@H](Cc2ccc(O)cc2)C(=O)N1)C(N)=O` [^99mTc-RGD-Lys-(Arg^11)CCMSH, metal not drawn] (RGD[dY]DKCCEH[dF]RWCRPV-NH2; lactam N-5) showed a tissue uptake (normal organs except kidneys, 0.037 MBq, after 2 h post-injection, read-out: Normal organ uptakes except for the kidneys) of under 3.2 %ID/g, a tissue uptake at 0.5 h [1] of 1.48 ± 1.24 %ID/g and a tissue uptake at 2 h [1] of 0.72 ± 0.53 %ID/g. For the same compound, the tissue uptake at 4 h [1] was 0.52 ± 0.41 %ID/g, the tissue uptake at 24 h [1] was 0.25 ± 0.06 %ID/g and the tissue uptake at 2 h (pancreas, NDP blockade (10 μg NDP-MSH co-injected), read-out: Pancreas, Percentage Injected Dose/gram) was 0.44 ± 0.37 %ID/g. The tissue uptake at 2 h (pancreas, RGD blockade (3.5 μg RGD co-injected), read-out: Pancreas, Percentage Injected Dose/gram) was 0.35 ± 0.19 %ID/g, the tissue uptake at 0.5 h [2] was 4.53 ± 0.88 %ID/g and the tissue uptake at 2 h [2] was 1.52 ± 0.66 %ID/g. For the same compound, the tissue uptake at 4 h [2] was 1.17 ± 0.61 %ID/g, the tissue uptake at 24 h [2] was 0.78 ± 0.19 %ID/g and the tissue uptake at 2 h (skin, NDP blockade (10 μg NDP-MSH co-injected), read-out: Skin, Percentage Injected Dose/gram) was 1.14 ± 0.38 %ID/g. The tissue uptake at 2 h (skin, RGD blockade (3.5 μg RGD co-injected), read-out: Skin, Percentage Injected Dose/gram) was 0.81 ± 0.13 %ID/g, the tissue uptake at 0.5 h [3] was 2.18 ± 0.88 %ID/g and the tissue uptake at 2 h [3] was 1.23 ± 0.62 %ID/g. It also gave a tissue uptake at 4 h [3] of 1.14 ± 0.16 %ID/g, a tissue uptake at 24 h [3] of 0.88 ± 0.3 %ID/g and a tissue uptake at 2 h (spleen, NDP blockade (10 μg NDP-MSH co-injected), read-out: Spleen, Percentage Injected Dose/gram) of 0.75 ± 0.37 %ID/g. The tissue uptake at 2 h (spleen, RGD blockade (3.5 μg RGD co-injected), read-out: Spleen, Percentage Injected Dose/gram) was 0.94 ± 0.3 %ID/g, the tissue uptake at 0.5 h [4] was 7.61 ± 1.98 %ID/g and the tissue uptake at 2 h [4] was 2.57 ± 0.38 %ID/g. The tissue uptake at 4 h [4] was 2.46 ± 1.39 %ID/g, the tissue uptake at 24 h [4] was 0.91 ± 0.67 %ID/g and the tissue uptake at 2 h (stomach, NDP blockade (10 μg NDP-MSH co-injected), read-out: Stomach, Percentage Injected Dose/gram) was 2.43 ± 0.8 %ID/g. It also gave a tissue uptake at 2 h (stomach, RGD blockade (3.5 μg RGD co-injected), read-out: Stomach, Percentage Injected Dose/gram) of 2.64 ± 0.1 %ID/g, a tissue uptake at 0.5 h [5] of 11.1 ± 1.41 %ID/g and a tissue uptake at 2 h [5] of 14.8 ± 2.94 %ID/g. It also gave a tissue uptake at 4 h [5] of 12.6 ± 2.53 %ID/g, a tissue uptake at 24 h [5] of 7.59 ± 2.04 %ID/g and a tissue uptake at 2 h (tumor, NDP blockade (10 μg NDP-MSH co-injected), read-out: Tumor, Percentage Injected Dose/gram) of 1.81 ± 0.64 %ID/g. For the same compound, the tissue uptake at 2 h (tumor, RGD blockade (3.5 μg RGD co-injected), read-out: Tumor, Percentage Injected Dose/gram) was 10.5 ± 1.18 %ID/g, the tissue to tissue ratio at 0.5 h [6] was 3.48 and the tissue to tissue ratio at 2 h [6] was 15.4. For the same compound, the tissue to tissue ratio at 4 h [6] was 25.1, the tissue to tissue ratio at 24 h [6] was 69 and the tissue to tissue ratio at 2 h (tumor/blood, NDP blockade (10 μg NDP-MSH co-injected), read-out: Uptake Ratio Tumor/Blood) was 5.66. It also gave a tissue to tissue ratio at 2 h (tumor/blood, RGD blockade (3.5 μg RGD co-injected), read-out: Uptake Ratio Tumor/Blood) of 19.8, a tissue to tissue ratio at 0.5 h [7] of 0.16 and a tissue to tissue ratio at 2 h [7] of 0.22. It also gave a tissue to tissue ratio at 4 h [7] of 0.18, a tissue to tissue ratio at 24 h [7] of 0.19 and a tissue to tissue ratio at 2 h (tumor/kidneys, NDP blockade (10 μg NDP-MSH co-injected), read-out: Uptake Ratio Tumor/Kidneys) of 0.03. It also gave a tissue to tissue ratio at 2 h (tumor/kidneys, RGD blockade (3.5 μg RGD co-injected), read-out: Uptake Ratio Tumor/Kidneys) of 0.19, a tissue to tissue ratio at 0.5 h [8] of 2.75 and a tissue to tissue ratio at 2 h [8] of 4.68. It also gave a tissue to tissue ratio at 4 h [8] of 4.32, a tissue to tissue ratio at 24 h [8] of 4.39 and a tissue to tissue ratio at 2 h (tumor/liver, NDP blockade (10 μg NDP-MSH co-injected), read-out: Uptake Ratio Tumor/Liver) of 0.63. For the same compound, the tissue to tissue ratio at 2 h (tumor/liver, RGD blockade (3.5 μg RGD co-injected), read-out: Uptake Ratio Tumor/Liver) was 4.63, the tissue to tissue ratio at 0.5 h [9] was 2.08 and the tissue to tissue ratio at 2 h [9] was 11.8. The tissue to tissue ratio at 4 h [9] was 11.8, the tissue to tissue ratio at 24 h [9] was 8.07 and the tissue to tissue ratio at 2 h (tumor/lung, NDP blockade (10 μg NDP-MSH co-injected), read-out: Uptake Ratio Tumor/Lung) was 1.38. The tissue to tissue ratio at 2 h (tumor/lung, RGD blockade (3.5 μg RGD co-injected), read-out: Uptake Ratio Tumor/Lung) was 9.38, the tissue to tissue ratio at 0.5 h [10] was 29.1 and the tissue to tissue ratio at 2 h [10] was 43.6. The tissue to tissue ratio at 4 h [10] was 96.7, the tissue to tissue ratio at 24 h [10] was 33 and the tissue to tissue ratio at 2 h (tumor/muscle, NDP blockade (10 μg NDP-MSH co-injected), read-out: Uptake Ratio Tumor/Muscle) was 8.62. The tissue to tissue ratio at 2 h (tumor/muscle, RGD blockade (3.5 μg RGD co-injected), read-out: Uptake Ratio Tumor/Muscle) was 70.
